Laboratory results published in ChEMBL document CHEMBL1201862, “PubChem BioAssay data set” (2004).
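All cell lines were grown in 96-well plates and treated with compound for 48 hours. GI50 marks 50% less growth.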 Activity calls are given as the source filed them. Cut-off read from the data, not from the text of the source: active = GI50 up to about 1.1 µM and inactive = higher.

How the values were obtained:
Experiment in all cases: NCI tumour cell line growth inhibition, 48 h
[1] = system: 786-0
[2] = system: SW-620
[3] = system: CCRF-CEM
[4] = system: RPMI-8226
[5] = system: M14
[6] = system: SK-OV-3
[7] = system: HT-29
[8] = system: LOX IMVI
[9] = system: SK-MEL-28
[10] = system: OVCAR-8
[11] = system: NCI-H460
[12] = system: RXF 393
[13] = system: SK-MEL-5
[14] = system: TK-10
[15] = system: OVCAR-5
[16] = system: ACHN
[17] = system: HOP-62
[18] = system: DU-145
[19] = system: HOP-92

Measured: GI50

CC12Cc3cc4c(cc3C1(c1ccc([N+](=O)[O-])cc1)OCCO2)OCO4 (stereo not given)
inactive: [1] 47.9 µM | [2] > 100 µM | [3] > 100 µM | [4] > 100 µM | [5] > 100 µM | [6] 16.8 µM | [7] > 100 µM | [8] > 100 µM | [9] > 100 µM | [10] 22.4 µM | [11] 70.3 µM | [12] 16.4 µM | [13] > 100 µM | [14] 37.8 µM | [15] > 100 µM | [16] 28 µM | [17] 18.1 µM | [18] 87.1 µM

CCOc1cc(C(c2c(O)c3ccccc3oc2=O)c2c(O)c3ccccc3oc2=O)ccc1OC
inactive: [1] 18.3 µM | [2] 35.4 µM | [3] 22.1 µM | [4] 22.3 µM | [5] 19.1 µM | [6] 16.7 µM | [7] 24.2 µM | [8] 20.6 µM | [9] 28.1 µM | [10] 20 µM | [19] 16.5 µM | [13] 23.2 µM | [14] 18 µM | [15] 19.6 µM | [16] 18 µM | [17] 18.2 µM | [18] 19.3 µM

CC1(C)CC(=O)C2=C(C1)NC1=C(C2)C(=O)CC(C)(C)C1
inactive: [1] > 100 µM | [2] > 100 µM | [3] > 100 µM | [4] > 100 µM | [5] > 100 µM | [6] > 100 µM | [7] > 100 µM | [8] > 100 µM | [9] > 100 µM | [10] > 100 µM | [11] > 100 µM | [12] > 100 µM | [13] > 100 µM | [14] > 100 µM | [15] > 100 µM | [16] > 100 µM | [17] > 100 µM | [18] > 100 µM

CC(C)OC(=O)C1(C(C)C)CCc2ccc(C(=O)CCC(=O)O)cc21 (stereo not given)
inactive: [1] > 100 µM | [2] > 100 µM | [3] > 100 µM | [4] > 100 µM | [5] > 100 µM | [6] > 100 µM | [7] > 100 µM | [8] > 100 µM | [9] > 100 µM | [10] > 100 µM | [11] > 100 µM | [12] > 100 µM | [13] > 100 µM | [14] > 100 µM | [15] > 100 µM | [16] > 100 µM | [17] > 100 µM | [18] > 100 µM

CCOC(=O)C(C#N)C1=CC(=O)C(=O)c2ccc(O)cc21 (stereo not given)
inactive: [1] > 100 µM | [2] 77.4 µM | [3] > 100 µM | [4] > 100 µM | [5] 20.9 µM | [6] > 100 µM | [7] > 100 µM | [8] 36.7 µM | [9] > 100 µM | [10] 44.7 µM | [11] > 100 µM | [12] > 100 µM | [13] 42.7 µM | [14] > 100 µM | [15] > 100 µM | [16] 42.3 µM | [17] > 100 µM | [18] > 100 µM

CN(Cc1cnc2nc(N)nc(N)c2n1)c1ccc(C(=O)NC23CC4CC(CC(C4)C2)C3)cc1
inactive: [1] 7.24 µM | [2] 7.33 µM | [3] 3.95 µM | [4] 22 µM | [5] 4.14 µM | [6] 15.2 µM | [8] 5.48 µM | [10] 7.35 µM | [11] 5.96 µM | [12] 17.1 µM | [13] 4.19 µM | [14] 14.5 µM | [15] 12.2 µM | [16] 3.13 µM | [17] 12.6 µM | [18] 10.7 µM
